pIC50: −log10 of the molar value. Activity calls are given as the source filed them. The rule behind the calls is not given here.
What was measured:
[1] = system: J774; assay: Immunostimulatory activity in mouse J774 macrophage infected with Leishmania donovani assessed as fold increase in IL-12 level at 25 uM measured after 24 hrs by RT-PCR analysis; format: functional
[2] = system: Splenocyte; assay: Immunostimulatory activity in mouse splenocyte assessed as fold increase in IL-12 synthesis at 10 to 40 mg/kg measured after 1 week by RT-PCR analysis; format: functional; details: dose 10-40 mg/kg; time 1 weeks
[3] = Stability of the compound in stimulated intestinal fluid at 10 ug/ml at pH 6.8 measured after 120 min by HPLC analysis; format: ADME; details: simulated intestinal fluid, at 10 µg/mL, read-out: Stability
[4] = Stability of the compound in stimulated gastric fluid at 10 ug/ml at pH 1.2 measured upto 120 min by HPLC analysis; format: ADME; details: simulated gastric fluid, at 10 µg/mL, read-out: Stability
[5] = system: Leishmania donovani; assay: Antileishmanial activity against Leishmania donovani infected in golden hamster assessed as inhibition of parasite growth in liver at 40 mg/kg, po administered for 7 days and measured after 28 days by giemsa staining based analysis relative to control; format: functional; set-up: scale not given: the % may be the effect or the level left; details: time 28 day
[6] = Selectivity index, ratio of CC50 for mouse J774 macrophage to IC50 for Leishmania donovani amastigotes infected in J774 macrophage; format: toxicity; details: J774 macrophages, read-out: Ratio CC50/IC50
[7] = system: Leishmania donovani; assay: Induction of cell cycle arrest in Leishmania donovani promastigotes assessed as accumulation of cells at G2/M phase at 25 uM measured after 12 hrs by PI staining based flow cytometry analysis (reference value: 35.7%); format: functional
[8] = system: Leishmania donovani; assay: Induction of cell cycle arrest in Leishmania donovani promastigotes assessed as accumulation of cells at G1 phase at 25 uM measured after 12 hrs by PI staining based flow cytometry analysis (reference value: 35.7%); format: functional
[9] = system: J774; assay: Downregulation of GSK-3beta phosphorylation in mouse J774 macrophage infected with Leishmania donovani at 25 uM measured after 8 to 12 hrs by immunoblot analysis; format: functional, cell-based; details: time 8-12 hrs
[10] = Toxicity in BALB/c mouse assessed as effect on skin texture at 10 to 40 mg/kg, po measured after 1 week; format: organism-based; details: in vivo, 168 h, dose 10-40 mg/kg, time 1 weeks
[11] = system: Leishmania donovani; assay: Antileishmanial activity against amastigote form of Leishmania donovani infected in BALB/c mouse assessed as inhibition of parasite growth in liver at 10 mg/kg, po measured after 1 week post treatment by geimsa staining based analysis relative to control; format: functional; set-up: scale not given: the % may be the effect or the level left; details: time 1 weeks
[12] = system: Leishmania donovani; assay: Induction of cell cycle arrest in Leishmania donovani promastigotes assessed as accumulation of cells at G1 phase at 25 uM measured after 4 hrs by PI staining based flow cytometry analysis (reference value: 35.7%); format: functional
[13] = system: Leishmania donovani; assay: Induction of cell cycle arrest in Leishmania donovani promastigotes assessed as accumulation of cells at G2/M phase at 25 uM measured after 4 hrs by PI staining based flow cytometry analysis (reference value: 35.7%); format: functional
[14] = Toxicity in golden hamster infected with Leishmania donovani assessed as reduction in serum ALT level at 40 mg/kg ,po and measured after 28 days post infection (reference value: 81.58 IU/L); format: organism-based, Mesocricetus auratus; details: in vivo, 672 h, time 28 day
[15] = Toxicity in BALB/c mouse assessed as effect on body weight at 10 to 40 mg/kg, po measured after 1 week; format: organism-based; details: in vivo, 168 h, dose 10-40 mg/kg, time 1 weeks
[16] = system: Leishmania donovani; assay: Antileishmanial activity against Leishmania donovani promastigotes measured after 48 hrs by MTT assay; format: functional, organism-based
[17] = system: J774; assay: Immunostimulatory activity in mouse J774 macrophage infected with Leishmania donovani promastigotes assessed as fold increase in iNOS mRNA expression at 25 uM measured after 48 hrs in presence of nitric oxide by spectrophotometer analysis; format: functional
[18] = Stability of the compound in Tris-buffer at 10 ug/ml at pH 7.4 measured upto 120 min by HPLC analysis; format: physicochemical; details: at 10 µg/mL, read-out: Stability
[19] = system: Leishmania donovani; assay: Antileishmanial activity against amastigote form of Leishmania donovani infected in BALB/c mouse assessed as inhibition of parasite growth in liver at 40 mg/kg, po measured after 1 week post treatment by geimsa staining based analysis relative to control; format: functional; set-up: scale not given: the % may be the effect or the level left; details: time 1 weeks
[20] = system: J774; assay: Immunostimulatory activity in mouse J774 macrophage infected with Leishmania donovani assessed as decrease in IL-10 level at 25 uM measured after 24 hrs by RT-PCR analysis relative to control; format: functional; set-up: scale not given: the % may be the effect or the level left
[21] = system: Leishmania donovani; assay: Antileishmanial activity against Leishmania donovani infected in golden hamster assessed as inhibition of parasite growth in spleen at 80 mg/kg, po administered for 7 days and measured after 28 days by giemsa staining based analysis relative to control; format: functional; set-up: scale not given: the % may be the effect or the level left; details: time 28 day
[22] = system: Leishmania donovani; assay: Induction of cell cycle arrest in Leishmania donovani promastigotes assessed as accumulation of cells at G2/M phase at 25 uM measured after 8 hrs by PI staining based flow cytometry analysis (reference value: 35.7%); format: functional
[23] = system: Leishmania donovani; assay: Induction of autophagy in Leishmania donovani promastigotes assessed as appearance of lipid droplets in cytoplasm at 25 uM measured after 24 hrs by Nile red staining based fluorescence microscopic analysis; format: functional, organism-based
[24] = system: Leishmania donovani; assay: Induction of apoptosis in Leishmania donovani promastigotes assessed as appearance of intense swelling in mitochondria at 25 uM by transmission electron microscopy analysis; format: functional, organism-based
[25] = system: Leishmania donovani; assay: Antileishmanial activity against amastigote form of Leishmania donovani infected in BALB/c mouse assessed as inhibition of parasite growth in spleen at 40 mg/kg, po measured after 1 week post treatment by geimsa staining based analysis relative to control; format: functional; set-up: scale not given: the % may be the effect or the level left; details: time 1 weeks
[26] = system: Leishmania donovani; assay: Antileishmanial activity against Leishmania donovani promastigotes at 25 uM measured after 48 hrs by MTT assay relative to control; format: functional
[27] = system: Leishmania donovani; assay: Induction of autophagy in Leishmania donovani promastigotes assessed as fold induction of ATG5 gene at 25 uM measured after 24 hrs by RT-PCR analysis; format: functional
[28] = Toxicity in golden hamster infected with Leishmania donovani assessed as reduction in serum AST level at 40 mg/kg ,po and measured after 28 days post infection (reference value: 82.72 IU/L); format: organism-based, Mesocricetus auratus; details: in vivo, 672 h, time 28 day
[29] = system: Leishmania donovani; assay: Antileishmanial activity against Leishmania donovani promastigotes at 25 uM measured after 12 hrs in presence of antipain by luciferase assay relative to control; format: functional
[30] = Renal toxicity in golden hamster assessed as effect on urea level at 40 mg/kg, po measured after 28 days post infection; format: organism-based, Mesocricetus auratus; details: in vivo, 672 h, time 28 day
[31] = system: Leishmania donovani; assay: Induction of apoptosis in Leishmania donovani promastigotes assessed as late phase apoptosis at 25 uM measured after 48 hrs by DNA laddering assay; format: functional, organism-based
[32] = system: Leishmania donovani; assay: Induction of cell cycle arrest in Leishmania donovani promastigotes assessed as accumulation of cells at S phase at 25 uM measured after 4 hrs by PI staining based flow cytometry analysis (reference value: 28.6%); format: functional
[33] = system: Leishmania donovani; assay: Induction of cell cycle arrest in Leishmania donovani promastigotes assessed as accumulation of cells at G1 phase at 25 uM measured after 24 hrs by PI staining based flow cytometry analysis (reference value: 35.7%); format: functional
[34] = system: Leishmania donovani; assay: Induction of autophagy in Leishmania donovani promastigotes assessed as fold induction of ATG8 gene at 25 uM measured after 24 hrs by RT-PCR analysis; format: functional
[35] = system: Leishmania donovani; assay: Antileishmanial activity against Leishmania donovani promastigotes at 25 uM measured after 12 hrs by luciferase assay relative to control; format: functional

SMILES: Cn1c(-c2ccc(OCC(=O)Nc3ccccn3)cc2)nc2ccccc2c1=O
- fold change (FC) [1]: 3.4
- fold change (FC) [2]: 4.96
- remaining at 2 h, 10 ug/ml [3]: 97.5%
- remaining at 2 h, 10 ug/ml [4]: 94.5%
- Activity [5]: 66.7%
- selectivity ratio [6]: 18.3
- Activity [7]: 18.7%
- Activity [8]: 65.8%
- Activity [9]: Active
- Activity [10]: Non-Toxic
- Activity [11]: >50%
- Activity [12]: 43.8%
- Activity [13]: 30.6%
- Activity [14]: 101.88 IU/L
- Activity [15]: Non-Toxic
- pIC50 [16]: 5.47
- fold change (FC) [17]: 4.87
- remaining at 2 h, 10 ug/ml [18]: 95.5%
- Activity [19]: 85.4%
- Activity [20]: 72.23%
- Activity [21]: 85.8%
- Activity [22]: 23.8%
- Activity [23]: Active
- Activity [24]: Active
- Activity [25]: 86.3%
- Activity [26]: 85.64%
- fold change (FC) [27]: 2.84
- Activity [28]: 123.38 IU/L
- Activity [29]: 40.44%
- Activity [30]: Non-Toxic
- Activity [31]: Active
- Activity [32]: 25.6%
- Activity [33]: 72.2%
- fold change (FC) [34]: 8.92
- Activity [35]: 11.8%
